15 molecules from EP4603105A1, “PHARMACEUTICAL COMPOSITION CONTAINING CYCLIC COMPOUND HAVING SELECTIVE KRAS INHIBITORY EFFECT AGAINST HRAS AND NRAS” (CHUGAI SEIYAKU KABUSHIKI KAISHA, priority 2022, dated 2024) can be followed below.

For assay [1], the target named is GDP-bound NRAS wild-type protein (Homo sapiens, UniProt P01111). The experiment in a line: Binding to NRAS by surface plasmon resonance (SPR), KD and KD ratio to KRAS. The note with it: ratio of the KD value with respect to GDP-bound NRAS wild-type protein to the KD value with respect to KRAS. An outline of the steps: (§1)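 Each cycle, GDP-bound biotin-Avi RAS was captured (~100–300 RU), compound concentrations were injected low to high for 75 s each at 100 µL/min, then the chip was regenerated. Buffer: HBS pH 7.4, 10 mM MgCl2, 10 µM GDP, 1 mM DTT, 4% DMSO; 30°C. KD from a 1:1 binding model.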
A general note: SPR reads the build-up and loss of mass on a sensor chip optically.

The test system of assay [2] is human lung cancer strain NCI-H441. It is filed as cell-based. An outline of the steps: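 Signal came from […] measured per well once the reagent was added. Beforehand, cells were cultured at 37°C and 5% carbon dioxide on a compound series serially diluted in dimethyl sulfoxide.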
In the next assay the target is HRAS wild-type protein (Homo sapiens, UniProt P01112). The experiment in a line: Binding to HRAS by surface plasmon resonance (SPR), KD and KD ratio to KRAS. The following applies: ratio of the KD value with respect to HRAS wild-type protein to the KD value with respect to KRAS. In outline: as §1

SMILES strings stand for the structures.

HRAS wild-type protein, sequence (P01112 whole entry): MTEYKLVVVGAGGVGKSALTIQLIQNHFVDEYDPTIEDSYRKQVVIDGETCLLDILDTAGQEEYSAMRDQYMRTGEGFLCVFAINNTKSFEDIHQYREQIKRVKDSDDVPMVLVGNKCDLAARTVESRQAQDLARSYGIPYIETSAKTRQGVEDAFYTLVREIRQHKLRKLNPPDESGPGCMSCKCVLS
GDP-bound NRAS wild-type protein, sequence (P01111 whole entry): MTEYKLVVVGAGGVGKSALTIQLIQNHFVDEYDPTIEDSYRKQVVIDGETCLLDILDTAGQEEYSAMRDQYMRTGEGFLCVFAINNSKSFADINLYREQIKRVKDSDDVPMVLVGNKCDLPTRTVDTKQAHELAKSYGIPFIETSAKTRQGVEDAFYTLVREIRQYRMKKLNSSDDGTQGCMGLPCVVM

Turning to `CCO[C@@H]1C[C@H]2C(=O)NC3(CC(C)(C)C3)C(=O)N(C)[C@@H](C(CC)CC)C(=O)N(C)[C@H](C(=O)N(C)C)CC(=O)N(C)[C@@H](CC)C(=O)N[C@@H]([C@@H](C)CC)C(=O)N(C)CC(=O)N(C)[C@H]3C/C=C\CCN(C3=O)[C@@H](Cc3ccc(C)cc3)C(=O)N(C)CC(=O)N[C@@H](CCc3ccc(C(F)(F)F)c(OC)c3)C(=O)N2C1` [PP2170], the “NRAS /KRAS” value in assay [1] was “A (a compound having 10 or more and less than 20 is denoted as A)”. In addition, in assay [2], the half-inhibitory concentration (IC50) is 8.5 nM. The “HRAS /KRAS” value at HRAS wild-type protein is “A (a compound having 10 or more and less than 20 is denoted as A)”.
With `CCO[C@@H]1C[C@H]2C(=O)NC3(CC(C)(C)C3)C(=O)N(C)[C@@H](C(CC)CC)C(=O)N(C)[C@H](C(=O)N3CCCC3)CC(=O)N(C)[C@@H](CC)C(=O)N[C@@H]([C@@H](C)CC)C(=O)N(C)CC(=O)N(C)[C@H]3C/C=C\CCN(C3=O)[C@@H](Cc3ccc(C)cc3)C(=O)N(C)CC(=O)N[C@@H](CCc3ccc(C(F)(F)F)c(OC)c3)C(=O)N2C1` [PP2171], the “NRAS /KRAS” value in assay [1] was “A (a compound having 10 or more and less than 20 is denoted as A)”. Also, the midpoint of inhibition in assay [2], the IC50, lay at 19.6 nM. In addition, the “HRAS /KRAS” value on HRAS wild-type protein was “A (a compound having 10 or more and less than 20 is denoted as A)”.
For `CCO[C@@H]1C[C@H]2C(=O)NC3(CC(C)(C)C3)C(=O)N(C)[C@@H](C(CC)CC)C(=O)N(C)[C@H](C(=O)N(C)C)CC(=O)N(C)[C@@H](CC3CCC3)C(=O)N[C@@H]([C@@H](C)CC)C(=O)N(C)CC(=O)N(C)[C@H]3C/C=C\CCN(C3=O)[C@@H](Cc3ccc(C)cc3)C(=O)N(C)CC(=O)N[C@@H](CCc3ccc(C(F)(F)F)c(OC)c3)C(=O)N2C1` [PP2172], in assay [1], the “NRAS /KRAS” value was “A (a compound having 10 or more and less than 20 is denoted as A)”. In assay [2], this molecule displayed a half-maximal inhibitory concentration (IC50) of 5.8 nM. Further, the “HRAS /KRAS” value at HRAS wild-type protein was “B (a compound having 3 or more and less than 10 is denoted as B)”.
For `CCO[C@@H]1C[C@H]2C(=O)NC3(CC(C)(C)C3)C(=O)N(C)[C@@H](C(CC)CC)C(=O)N(C)[C@H](C(=O)N(C)C)CC(=O)N(C)[C@@H](C(C)C)C(=O)N[C@@H]([C@@H](C)CC)C(=O)N(C)CC(=O)N(C)[C@H]3C/C=C\CCN(C3=O)[C@@H](Cc3ccc(C)cc3)C(=O)N(C)CC(=O)N[C@@H](CCc3ccc(C(F)(F)F)c(OC)c3)C(=O)N2C1` [PP2173], the “NRAS /KRAS” value in assay [1] is “A (a compound having 10 or more and less than 20 is denoted as A)”. This molecule also registered a concentration for half-maximal inhibition (IC50) in assay [2] of 19.9 nM. Also, at HRAS wild-type protein, the “HRAS /KRAS” value is “A (a compound having 10 or more and less than 20 is denoted as A)”.
As to `CCO[C@@H]1C[C@H]2C(=O)NC3(CC(C)(C)C3)C(=O)N(C)[C@@H](C(CC)CC)C(=O)N(C)[C@H](C(=O)N3CCCC3)CC(=O)N(C)[C@@H](COC)C(=O)N[C@@H]([C@@H](C)CC)C(=O)N(C)CC(=O)N(C)[C@H]3C/C=C\CCN(C3=O)[C@@H](Cc3ccc(C(F)(F)F)cc3)C(=O)N(C)CC(=O)N[C@@H](CCc3ccc(Cl)c(Cl)c3)C(=O)N2C1` [PP2174], in assay [1], the “NRAS /KRAS” value is listed as “AA (a compound having 20 or more is denoted as AA)”. The midpoint of inhibition in assay [2], the IC50, lay at 24 nM. For the same molecule, the “HRAS /KRAS” value at HRAS wild-type protein is “A (a compound having 10 or more and less than 20 is denoted as A)”.
For `CCO[C@@H]1C[C@H]2C(=O)NC3(CC(C)(C)C3)C(=O)N(C)[C@@H](C(CC)CC)C(=O)N(C)[C@H](C(=O)N(C)C)CC(=O)N(C)[C@@H](CC(C)C)C(=O)N[C@@H]([C@@H](C)CC)C(=O)N(C)CC(=O)N(C)[C@H]3C/C=C\CCN(C3=O)[C@@H](Cc3ccc(C(F)(F)F)cc3)C(=O)N(C)CC(=O)N[C@@H](CCc3ccc(Cl)c(Cl)c3)C(=O)N2C1` [PP2176], the “NRAS /KRAS” value in assay [1] is on record as “AA (a compound having 20 or more is denoted as AA)”. In addition, the IC50 in assay [2] stood at 52.9 nM. For the same molecule, at HRAS wild-type protein, the “HRAS /KRAS” value was “A (a compound having 10 or more and less than 20 is denoted as A)”.
As for `CCO[C@@H]1C[C@H]2C(=O)NC3(CC(C)(C)C3)C(=O)N(C)[C@@H](C(CC)CC)C(=O)N(C)[C@H](C(=O)N3CCCC3)CC(=O)N(C)[C@@H](C)C(=O)N[C@@H]([C@@H](C)CC)C(=O)N(C)CC(=O)N(C)[C@H]3C/C=C\CCN(C3=O)[C@@H](Cc3ccc(C(F)(F)F)cc3)C(=O)N(C)CC(=O)N[C@@H](CCc3ccc(Cl)c(Cl)c3)C(=O)N2C1` [PP2178], the “NRAS /KRAS” value in assay [1] is recorded as “AA (a compound having 20 or more is denoted as AA)”. Besides, the IC50 in assay [2] was determined as 35.9 nM. Besides, the “HRAS /KRAS” value at HRAS wild-type protein is “A (a compound having 10 or more and less than 20 is denoted as A)”.
Regarding `CCO[C@@H]1C[C@H]2C(=O)NC3(CC(C)(C)C3)C(=O)N(C)[C@@H](C(CC)CC)C(=O)N(C)[C@H](C(=O)N(C)C)CC(=O)N(C)[C@@H](CC3CCC3)C(=O)N[C@@H]([C@@H](C)CC)C(=O)N(C)CC(=O)N(C)[C@H]3C/C=C\CCN(C3=O)[C@@H](Cc3ccc(C(F)(F)F)cc3)C(=O)N(C)CC(=O)N[C@@H](CCc3ccc(Cl)c(Cl)c3)C(=O)N2C1` [PP2180], the “NRAS /KRAS” value in assay [1] was “AA (a compound having 20 or more is denoted as AA)”. This molecule returned a concentration for half-maximal inhibition (IC50) in assay [2] of 27.8 nM. Moreover, the “HRAS /KRAS” value at HRAS wild-type protein is “A (a compound having 10 or more and less than 20 is denoted as A)”.
As for `CCO[C@@H]1C[C@H]2C(=O)NC3(CC(C)(C)C3)C(=O)N(C)[C@@H](C(CC)CC)C(=O)N(C)[C@H](C(=O)N(C)C)CC(=O)N(C)[C@@H](C(C)C)C(=O)N[C@@H]([C@@H](C)CC)C(=O)N(C)CC(=O)N(C)[C@H]3C/C=C\CCN(C3=O)[C@@H](Cc3ccc(C(F)(F)F)cc3)C(=O)N(C)CC(=O)N[C@@H](CCc3ccc(Cl)c(Cl)c3)C(=O)N2C1` [PP2181], the “NRAS /KRAS” value in assay [1] is reported as “AA (a compound having 20 or more is denoted as AA)”. In assay [2], this molecule had a 50% inhibitory concentration (IC50) of 40.3 nM. In addition, the “HRAS /KRAS” value on HRAS wild-type protein is “A (a compound having 10 or more and less than 20 is denoted as A)”.
As for `CCC[C@H]1C(=O)N[C@@H]([C@@H](C)CC)C(=O)N(C)CC(=O)N(C)[C@H]2C/C=C\CCN(C2=O)[C@@H](Cc2ccc(C)cc2)C(=O)N(C)CC(=O)N[C@@H](CCc2ccc(Cl)c(Cl)c2)C(=O)N2C[C@H](OCC)C[C@H]2C(=O)NC2(CC(C)(C)C2)C(=O)N(C)[C@@H](C(CC)CC)C(=O)N(C)[C@H](C(=O)N(C)C)CC(=O)N1C` [PP2184], the “NRAS /KRAS” value in assay [1] is on record as “AA (a compound having 20 or more is denoted as AA)”. In assay [2], this molecule registered an IC50 of 29.2 nM. In addition, the “HRAS /KRAS” value on HRAS wild-type protein was “A (a compound having 10 or more and less than 20 is denoted as A)”.
Regarding `CCO[C@@H]1C[C@H]2C(=O)NC3(CC(C)(C)C3)C(=O)N(C)[C@@H](C(CC)CC)C(=O)N(C)[C@H](C(=O)N(C)C)CC(=O)N(C)[C@@H](CC(C)C)C(=O)N[C@@H]([C@@H](C)CC)C(=O)N(C)CC(=O)N(C)[C@H]3C/C=C\CCN(C3=O)[C@@H](Cc3ccc(C)cc3)C(=O)N(C)CC(=O)N[C@@H](CCc3ccc(Cl)c(Cl)c3)C(=O)N2C1` [PP2185], in assay [1], the “NRAS /KRAS” value is “AA (a compound having 20 or more is denoted as AA)”. Further, in assay [2], the 50% inhibitory concentration (IC50) was 36.1 nM. In addition, the “HRAS /KRAS” value at HRAS wild-type protein was “A (a compound having 10 or more and less than 20 is denoted as A)”.
For `CCO[C@@H]1C[C@H]2C(=O)NC3(CC(C)(C)C3)C(=O)N(C)[C@@H](C(CC)CC)C(=O)N(C)[C@H](C(=O)N(C)C)CC(=O)N(C)[C@@H](C)C(=O)N[C@@H]([C@@H](C)CC)C(=O)N(C)CC(=O)N(C)[C@H]3C/C=C\CCN(C3=O)[C@@H](Cc3ccc(C)cc3)C(=O)N(C)CC(=O)N[C@@H](CCc3ccc(Cl)c(Cl)c3)C(=O)N2C1` [PP2186], the “NRAS /KRAS” value in assay [1] is on record as “AA (a compound having 20 or more is denoted as AA)”. In assay [2], this molecule displayed a concentration for half-maximal inhibition (IC50) of 33.7 nM. The “HRAS /KRAS” value at HRAS wild-type protein was “A (a compound having 10 or more and less than 20 is denoted as A)”.
For the molecule `CCO[C@@H]1C[C@H]2C(=O)NC3(CC(C)(C)C3)C(=O)N(C)[C@@H](C(CC)CC)C(=O)N(C)[C@H](C(=O)N3CCCC3)CC(=O)N(C)[C@@H](C)C(=O)N[C@@H]([C@@H](C)CC)C(=O)N(C)CC(=O)N(C)[C@H]3C/C=C\CCN(C3=O)[C@@H](Cc3ccc(C)cc3)C(=O)N(C)CC(=O)N[C@@H](CCc3ccc(Cl)c(Cl)c3)C(=O)N2C1` [PP2187], in assay [1], the “NRAS /KRAS” value was “AA (a compound having 20 or more is denoted as AA)”. Moreover, the half-maximal inhibitory concentration (IC50) in assay [2] came out at 31.4 nM. Also, on HRAS wild-type protein, the “HRAS /KRAS” value was “A (a compound having 10 or more and less than 20 is denoted as A)”.
In the case of `CCO[C@@H]1C[C@H]2C(=O)NC3(CC(C)(C)C3)C(=O)N(C)[C@@H](C(CC)CC)C(=O)N(C)[C@H](C(=O)N(C)C)CC(=O)N(C)[C@@H](CC)C(=O)N[C@@H]([C@@H](C)CC)C(=O)N(C)CC(=O)N(C)[C@H]3C/C=C\CCN(C3=O)[C@@H](Cc3ccc(C)cc3)C(=O)N(C)CC(=O)N[C@@H](CCc3ccc(Cl)c(Cl)c3)C(=O)N2C1` [PP2188], the “NRAS /KRAS” value in assay [1] was “AA (a compound having 20 or more is denoted as AA)”. This molecule also registered an IC50 in assay [2] of 26.7 nM. On HRAS wild-type protein, the “HRAS /KRAS” value is “A (a compound having 10 or more and less than 20 is denoted as A)”.
For the molecule `CCO[C@@H]1C[C@H]2C(=O)NC3(CCCC3)C(=O)N(C)[C@@H](C3CCCC3)C(=O)N(C)[C@H](C(=O)N(C)C)CC(=O)N(C)[C@@H](CC(C)C)C(=O)N[C@@H]([C@@H](C)CC)C(=O)N(C)CC(=O)N(C)[C@H]3C/C=C\CCN(C3=O)[C@@H](Cc3ccc(C)cc3)C(=O)N(C)CC(=O)N[C@@H](CCc3ccc(C(F)(F)F)c(Cl)c3)C(=O)N2C1` [PP2195], the “NRAS /KRAS” value in assay [1] is “A (a compound having 10 or more and less than 20 is denoted as A)”. The 50% inhibitory concentration (IC50) in assay [2] was found to be 7.8 nM. The “HRAS /KRAS” value on HRAS wild-type protein was “A (a compound having 10 or more and less than 20 is denoted as A)”.

A word on the IC50: it is the concentration at which inhibition is half-maximal. A low value points to inhibition by little substance.
